Values quoted from earlier work as cited in patent publication US5180744A, “Aralkyl-N-terminal amino hydroxy” (G. D. Searle & Co., priority 1991, dated 1993).
Square brackets hold non-standard residues; d marks the D form. Peptide text beside a SMILES is read from it. * marks the point of attachment. Sta = CC(C)C[C@H](N)[C@@H](O)CC(=O)O; Isovaleryl = CC(C)CC(=O)*

Test system: hog renin
Details: after the injection of hog renin into nephrectomized rats

CC(C)CC(=O)N[C@H](C(=O)N[C@H](C(=O)N[C@@H](CC(C)C)[C@@H](O)CC(=O)N[C@@H](C)C(=O)N[C@@H](CC(C)C)[C@@H](O)CC(=O)O)C(C)C)C(C)C [pepstatin] (Isovaleryl-VV[Sta]A[Sta]-OH)
blood pressure in vivo: reduce blood pressure in vivo
